The text below walks through data of patent US7838674B2, “Tetracyclic lactame derivatives” (Novartis AG, priority 2007, dated 2010).

Counter-ions that a name gives are not always drawn. Some results are limits rather than exact numbers.

Assay [1] has as its system TNF-α release from hPBMCs. The assay is described as follows: Assay for inhibition of TNF-α release from hPBMCs (IFNγ/LPS stimulated). Particulars: Homo sapiens, IFNγ (10 ng/ml) and LPS (5 μg/ml), 3 h. Format: cell-based. How it is done: Assay for Inhibition of TNF-α Release from hPBMCs
Human peripheral blood mononuclear cells (hPBMCs) are prepared from the peripheral blood of healthy volunteers using Ficoll-Plaque Plus (Amersham) density separation according to the method described within. Cells are seeded at a 1×10^5 cells/well in 96-well plates in RPMI 1640 medium (Invitrogen) containing 10% (v/v) fetal calf serum (FCS). Cells are pre-incubated with serial dilutions of test compound (0.25% v/v DMSO final) for 30 min at 37° C. Cells are stimulated with the addition of IFNγ (10 ng/ml) and lipopolysaccharide(LPS) (5 μg/ml) per well and incubated for 3 h at 37° C. Following a brief centrifugation (250×g for 2 min), supernatant (10 μl) samples are taken from each well and measured against a TNFα calibration curve using a HTRF TNFα kit (CisBio) as described within.
Using the TNF-α release assay described above, compounds of the formula I can be shown to have the following inhibition values: […]

Assay [2] addresses T1, MAPKAPK2 enzyme (HIS-MK2, Invitrogen PV4019) (Homo sapiens, UniProt P49137).
T1 construct: His; purchased Invitrogen PV4019
The assay is described as follows: Alternative MAPKAPK2 assay (Caliper microfluidic mobility shift, HSP27-peptide). In kind it is biochemical. Particulars: HIS-MK2 0.013 nM, ATP 10 μM, 60 min at 30° C.

For assay [3], the target named is human MK2 (Homo sapiens, UniProt P49137). The assay is described as follows: MAPKAPK2 kinase assay (TR-FRET, Hsp27 peptide substrate). For orientation: Time-resolved FRET reads energy transfer from a long-lived donor to a nearby acceptor.
Sequence of human MK2 (P49137 whole entry): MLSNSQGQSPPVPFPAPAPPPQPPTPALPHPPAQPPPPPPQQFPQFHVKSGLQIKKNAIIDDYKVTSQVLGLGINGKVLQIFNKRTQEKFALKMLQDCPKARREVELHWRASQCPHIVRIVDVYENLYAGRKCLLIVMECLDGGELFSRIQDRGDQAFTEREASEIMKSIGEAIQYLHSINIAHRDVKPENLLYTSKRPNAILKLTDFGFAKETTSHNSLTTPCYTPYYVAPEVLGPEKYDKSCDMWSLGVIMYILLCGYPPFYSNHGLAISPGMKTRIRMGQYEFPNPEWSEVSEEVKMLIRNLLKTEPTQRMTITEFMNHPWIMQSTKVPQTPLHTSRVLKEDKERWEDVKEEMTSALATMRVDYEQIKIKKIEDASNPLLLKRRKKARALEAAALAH

T1 sequence (P49137 whole entry): as above

By IC50 is commonly meant the midpoint of a concentration-inhibition curve. Take `Cc1ccc(-c2cc3c(cn2)CCc2c-3[nH]c3c2C(=O)NC2(CCC2)C3)cn1` [Example 103, 2-(1-Amino-cyclobutylmethyl)-8-(6-methyl-pyridin-3-yl)-4,5-dihydro-1H-pyrrolo[2,3-f]isoquinoline-3-carboxylic acid lactam]: the IC50 in assay [1] is 336 nM; in assay [2], 57 nM. As to `O=C1NCC2(CNC2)c2[nH]c3c(c21)CCc1cnc(-c2cccc(Cl)c2)cc1-3` [Example 187, 2-[3-Aminomethyl-azetidin-3-yl]-8-(3-chloro-phenyl)-4,5-dihydro-1H-pyrrolo[2,3-f]isoquinoline-3-carboxylic acid lactam hydrochloride], the 50% inhibitory concentration (IC50) in assay [1] is 156 nM; in assay [2] it was less than 3 nM. In assay [1], `O=C1NC2(CC2)C2(CC2)c2[nH]c3c(c21)CCc1cnc(-c2cccc(F)c2)cc1-3` [Example 195, 2-(1′-Amino-bicyclopropyl-1-yl)-8-(3-fluoro-phenyl)-4,5-dihydro-1H-pyrrolo[2,3-f]isoquinoline-3-carboxylic acid lactam] had an IC50 of 333 nM. As for `O=C1NCC2(CC2)c2[nH]c3c(c21)CCc1cnc(-c2ccc(CN4CCOCC4)c(F)c2)cc1-3` [Example 301, 2-(3-Fluoro-4-morpholin-4-ylmethyl-phenyl)-10-spirocyclopropyl-5,6,8,9,10,11-exahydro-3,8,11-triaza-benzo[a]fluoren-7-one], the 50% inhibitory concentration (IC50) in assay [1] worked out at 256 nM; in assay [2], 29 nM.

Take `COc1cncc(-c2cc3c(cn2)CCc2c-3[nH]c3c2C(=O)NC2(CCC2)C3)c1` [Example 99, 2-(1-Amino-cyclobutylmethyl)-8-(5-methoxy-pyridin-3-yl)-4,5-dihydro-1H-pyrrolo[2,3-f]isoquinoline-3-carboxylic acid lactam]: the IC50 in assay [1] was found to be 311 nM; in assay [2], 72 nM. Take `CC(C)Oc1ccc(-c2cc3c(cn2)CCc2c-3[nH]c3c2C(=O)NCC32CN(C)C2)cn1` [Example 185, 2-(3-Aminomethyl-1-methyl-azetidin-3-yl)-8-(6-isopropoxy-pyridin-3-yl)-4,5-dihydro-1H-pyrrolo[2,3-f]isoquinoline-3-carboxylic acid lactam hydrochloride]: the 50% inhibitory concentration (IC50) was 134 nM in assay [1] and less than 3 nM in assay [2]. For `N#Cc1cc(-c2cc3c(cn2)CCc2c-3[nH]c3c2C(=O)NCC32CC2)ccc1N1CCC(O)C1` (stereo not drawn) [Example 312, 2-(3-Hydroxy-pyrrolidin-1-yl)-10-spirocyclopropyl-5-(7-oxo-6,7,8,9,10,11-hexahydro-5H-3,8,11-triaza-benzo[a]fluoren-2-yl)-benzonitrile], the IC50 in assay [3] and in assay [2] was 15 nM throughout. On to `COc1ccc(-c2cc3c(cn2)CCc2c-3[nH]c3c2C(=O)NC2(CC2)C3)cc1` [Example 40, 2-(1-Amino-cyclopropylmethyl)-8-(4-methoxy-phenyl)-4,5-dihydro-1H-pyrrolo[2,3-f]isoquinoline-3-carboxylic acid lactam], for which, in assay [1], the half-inhibitory concentration (IC50) was found to be 220 nM.

With `COc1ccc(-c2ncc3c(n2)-c2[nH]c4c(c2CC3)C(=O)NCC42CN(C)C2)cc1` [Example 207, 2-(3-Aminomethyl-1-methyl-azetidin-3-yl)-8-(4-methoxy-phenyl)-4,5-dihydro-1H-1,7,9-triaza-cyclopenta[a]naphthalene-3-carboxylic acid lactam], in assay [1], it took 130 nM to reach half-maximal inhibition (IC50). On to `N#Cc1ccc(-c2cc3c(cn2)CCc2c-3[nH]c3c2C(=O)NCC32CC2)cn1` [Example 127, 2-(1-Aminomethyl-cyclopropyl)-8-(6-cyano-pyridin-3-yl)-4,5-dihydro-1H-pyrrolo[2,3-f]isoquinoline-3-carboxylic acid lactam], for which, in assay [1], the half-inhibitory concentration (IC50) was determined as 264 nM.

Take `CN(C)CCOc1cc(-c2cc3c(cn2)CCc2c-3[nH]c3c2C(=O)NCC32CC2)ccc1F` [Example 311, 2-[3-(2-Dimethylamino-ethoxy)-4-fluoro-phenyl]-10-spirocyclopropyl-5,6,8,9,10,11-hexahydro-3,8,11-triaza-benzo[a]fluoren-7-one]: the half-inhibitory concentration (IC50) in assay [3] and in assay [2] was 27 nM each time. In the case of `CN1CC2(CNC(=O)c3c2[nH]c2c3CCc3cnc(-c4ccccc4F)cc3-2)C1` [Example 172, 2-(3-Aminomethyl-1-methyl-azetidin-3-yl)-8-(2-fluoro-phenyl)-4,5-dihydro-1H-pyrrolo[2,3-f]isoquinoline-3-carboxylic acid lactam], the IC50 in assay [1] turned out to be 347 nM. In the case of `COCCOc1cncc(-c2cc3c(cn2)CCc2c-3[nH]c3c2C(=O)NCC32CC2)c1` [Example 1, 2-(1-Aminomethyl-cyclopropyl)-8-[5-(2-methoxy-ethoxy)-pyridin-3-yl]-4,5-dihydro-1H-pyrrolo[2,3-f]isoquinoline-3-carboxylic acid lactame], the IC50 in assay [3] is 47 nM; in assay [1], 320 nM. In turn, `O=C1NC2(CC2)Cc2[nH]c3c(c21)CCc1cnc(-c2ccc(OC4CCOCC4)nc2)cc1-3` [Example 96, 2-(1-Amino-cyclopropylmethyl)-8-[6-(tetrahydro-pyran-4-yloxy)-pyridin-3-yl]-4,5-dihydro-1H-pyrrolo[2,3-f]isoquinoline-3-carboxylic acid lactam] yielded a 50% inhibitory concentration (IC50) in assay [3] of 45 nM. In assay [3], `CCOc1ccc(-c2cc3c(cn2)CCc2c-3[nH]c3c2C(=O)NC2(CC2)C3)cn1` [Example 90, 2-(1-Amino-cyclopropylmethyl)-8-(6-ethoxy-pyridin-3-yl)-4,5-dihydro-1H-pyrrolo[2,3-f]isoquinoline-3-carboxylic acid lactam] returned an IC50 of 91 nM. `O=C1NC2(CNC2)Cc2[nH]c3c(c21)CCc1cnc(-c2cccc(F)c2)nc1-3` [Example 26, 2-(3-Amino-azetidin-3-ylmethyl)-8-(3-fluoro-phenyl)-4,5-dihydro-1H-1,7,9-triaza-cyclopenta[a]naphthalene-3-carboxylic acid lactam hydrochloride] displayed a 50% inhibitory concentration (IC50) in assay [3] of 15 nM.
